Data from patent US20030113330A1, “Methods for treating pulmonary fibrosis” (priority 1999, published 2003).
Entries after “also recorded” stand apart in the source; their conditions may differ.

What was measured:
[1] = molecular target: T1, Caspase 1/ICE (Homo sapiens, UniProt P29466); experiment: Caspase 1/ICE activity in intact A549 cells (Ac-YVAD-AMC); type: cell-based; settings: 50 ng/ml captopril
T1 construct: endogenous in cells; host or cells: A549 human lung epithelial cell line
T1 sequence (P29466 120-404): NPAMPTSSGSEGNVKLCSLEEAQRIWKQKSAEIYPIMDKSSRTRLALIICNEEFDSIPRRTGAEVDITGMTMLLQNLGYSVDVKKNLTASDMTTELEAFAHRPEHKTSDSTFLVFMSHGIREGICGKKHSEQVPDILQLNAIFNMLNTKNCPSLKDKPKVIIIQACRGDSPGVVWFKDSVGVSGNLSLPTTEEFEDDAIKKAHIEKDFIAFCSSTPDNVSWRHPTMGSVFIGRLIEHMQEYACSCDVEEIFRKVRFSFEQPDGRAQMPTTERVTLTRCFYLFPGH
Procedure: (§1) Caspase Assays. The enzymatic activities of Caspase 1/interleukin-1b-converting enzyme (ICE) and Caspase 3/CPP32/YAMA were determined in intact A549 cell cultures pre-incubated under conditions identical to those used for morphologic assays of apoptosis. After a 20 h incubation with antibodies and/or captopril, cells were trypsinized from the culture vessels and resuspended in serum-free culture medium containing anti-FAS antibodies and/or captopril at the same concentrations as during the preincubation. After one hour, fluorogenic peptide substrates specific to each enzyme were added separately to cuvettes containing cell suspension for measurement of total activity in intact cells. […] Production of fluorescent product over time was monitored in a spectrofluorometer at 380 nm excitation and 450 nm emission. […]
(§2) The same concentration of captopril also abrogated FAS-induced stimulation of Caspase 1 (ICE) (p<0.01 compared to control) and Caspase 3/CPP32/YAMA (p<0.01 compared to FASmAb treatment alone) activities. […] Cells were then analyzed in suspension culture for the activity of Caspase 1/ICE with peptide substrate Ac-YVAD-AMC or for activity of Caspase 3/CPP32/YAMA with peptide substrate Ac-DEVD-AMC as described above. […]

[2] = molecular target: T2, Caspase 3/CPP32/YAMA (Homo sapiens, UniProt P42574); experiment: Caspase 3/CPP32/YAMA activity in intact A549 cells (Ac-DEVD-AMC); type: cell-based; settings: 50 ng/ml captopril
T2 construct: endogenous in cells; host or cells: A549 human lung epithelial cell line
T2 sequence (P42574 29-277): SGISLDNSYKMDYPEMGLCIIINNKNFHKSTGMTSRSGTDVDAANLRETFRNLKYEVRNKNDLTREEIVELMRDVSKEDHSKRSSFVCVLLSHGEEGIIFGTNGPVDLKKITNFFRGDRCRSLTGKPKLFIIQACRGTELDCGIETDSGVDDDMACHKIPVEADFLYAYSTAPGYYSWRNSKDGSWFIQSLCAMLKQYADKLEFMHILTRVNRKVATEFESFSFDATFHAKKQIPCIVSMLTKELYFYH
Procedure: as §1, §2

[3] = tested on: angiotensinogen (ANGEN) mRNA; experiment: Quantitative RT-PCR of angiotensinogen mRNA in Fas-activated A549 cells; type: cell-based, human; settings: A549, CH-11
Procedure: (§3) RT-PCR. Reverse transcriptase polymerase chain reaction (RT-PCR) assay of angiotensinogen gene products was performed as described in Wang et al., Am. J. Physiol. 276:L885-L889 (1999) in a total reaction volume of 30 μl. Total RNA was isolated by the RNeasy Mini protocol (Qiagen Co., Santa Clarita, Calif.). The reaction was performed for 1 hour at 45 C. followed by 20 cycles of PCR amplification. PCR amplification was performed with 10 ul aliquots of cDNA, equivalent to 1 ug of the starting RNA. The identity of expressed genes was determined by expected size of the PCR product in 1.6% agarose gels.
For RT-PCR from the human A549 cells, the following primers were used: for angiotensinogen, “outer” primer of a two-step nested assay, coding=5′ GCTTTC-[…] 3′ [SEQ. ID NO. ______], and noncoding=5′ […] 3′ [SEQ. ID. NO. ______]; for the “inner” primer of the nested assay, coding=5′ […] 3′ [SEQ. ID NO. ______], and noncoding=5′ […] 3′ [SEQ. ID NO. ______]. These primers yield a final PCR product of 447 bp (8). […]
(§4) To confirm this, total RNA was isolated from human A549 cells or primary rat AEC that were unactivated (CTL) or activated with Fas-ligating CH-11 antibody or purified Fas ligand in the presence or absence of saralasin (SAR). Quantitative RT-PCR was performed with primers specific for human or rat angiotensinogen (ANGEN), β-actin or β-microglobulin (b-MG). […]

[4] = tested on: angiotensinogen (ANGEN) mRNA; experiment: Quantitative RT-PCR of angiotensinogen mRNA in Fas-activated primary rat AEC; type: cell-based; settings: Fas ligand
Procedure: as §3
For RT-PCR of rat-specific gene products, the following primers were used: for angiotensinogen, coding=5′ […] 3′, and noncoding=5′ […] 3′, which yields a PCR product of 226 bp by single-step RT-PCR (Pierzchalski et al., Exp. Cell Res. 234:57-65 (1997)). For β-microglobulin, the primers used were: coding=5′ […] 3′, and noncoding=5′ […] 3′, which yields a product of 249 bp (Katwa et al., Cardiovasc. Res. 29:57-64 (1995)).
as §4

Row | Structure (SMILES) | effect on FAS-inducible Caspase 1 activity [1] | effect on FAS-inducible Caspase 3 activity [2] | effect on accumulation of ANGEN mRNA during Fas activation [3] | effect on accumulation of ANGEN mRNA during Fas activation [4]
1 | C[C@H](CS)C(=O)N1CCC[C@H]1C(=O)O [captopril] | completely abrogated | significantly decreased; also recorded: abrogated |  | 
2 | CNCC(=O)N[C@@H](CCCN=C(N)N)C(=O)N[C@H](C(=O)N[C@@H](Cc1ccc(O)cc1)C(=O)N[C@H](C(=O)N[C@@H](Cc1cnc[nH]1)C(=O)N1CCC[C@H]1C(=O)N[C@@H](C)C(=O)O)C(C)C)C(C)C [saralasin] |  |  | had no effect | had no effect
